Patent US20050009809A1, “Acridine derivatives and their use as medicaments” (priority 2003, published 2005)
Values after ≈ are worked out from the molar mass of the structure shown. Where two headings read alike, the source gives them in different places.

Tests used:
[1] = tested on: bovine tubulin with 30% associated proteins (MAPs); assay: Tubulin polymerization assay; type: biochemical; details: tubulin with 30% MAPs, average of two independent experiments
Description: The compounds according to the invention were tested for inhibition of the polymerization of bovine tubulin in an in-vitro test. In this test, tubulin purified by cycles of polymerization and depolymerization is employed, which is polymerized by addition of GTP and warming. In Table 2, the inhibition or EC50 values of the inhibition of polymerization of tubulin with 30% associated proteins (MAPs) are indicated.
The assay is carried out based on the method of Bollag et al. Lyophilized bovine tubulin (cytoskeleton, ML113 tubulin 30% MAPs) is dissolved in a concentration of 2 mg/ml (ML113 in 80 mM PIPES, 0.5 mM EGTA, 2 mM MgCl2, pH 6.9, 1 mM GTP) or 5 mg/ml (TL238 in 80 mM PIPES, 1 mM EGTA, 0.5 mM MgCl2, 20% (v:v) glycerol pH 6.9, 1 mM GTP). The test substances are diluted in 10% DMSO (v:v) and 5 μl of the dilutions are transferred to a 96-well microtiter plate (Nunc, half area plate). After addition of 45 μl of the tubulin solution, the polymerization is determined at 340 nm in a Spectramax 190 microtiter plate reader (Molecular Devices) by means of a kinetics program at 30 sec intervals over a period of 20 min. The resulting area under curve values are used for the calculation of the inhibition with respect to the untreated control. The controls are untreated cells (±induction). Induction was carried out using 3 μM of muristerone A. On day 1, the cells are sown (±muristerone A) and incubated at 37° C. for 24 h. On day 2, the test substance is added (control DMSO) and incubation at 37° C. is continued further 45 h, after which a standard XTT assay is carried out.

[2] = tested on: lung carcinoma cell line NCI-H460; assay: XTT proliferation assay, NCI-H460; type: cell-based, human; details: Homo sapiens, read-out: XTT proliferation assay, EC50, NCI-H460
Source text: (§1) The substances according to the invention were investigated for their antiproliferative activity in a proliferation test on established tumor cell lines. The test used determines the cellular dehydrogenase activity and makes possible a determination of the cell vitality and indirectly the cell count. The cell lines used are the human cervical carcinoma cell line KB/HeLa (ATCC CCL17), the ovarian adenocarcinoma cell line SKOV-3 (ATCC HTB77), the human glioblastoma cell line […] (NCI 503138) and the lung carcinoma cell line NCI-H460 (NCI 503473).
(§2) The adherently growing tumor cell lines KB/HeLa, SKOV-3, SF-268 and NCI-H460 were cultured under standard conditions in a fumigation incubator at 37° C., 5% CO2 and 95% atmospheric humidity. On experimental day 1, the cells are detached using trypsin/EDTA and pelleted by centrifugation. Subsequently, the cell pellet is resuspended in the respective culture medium at the corresponding cell count and reacted in a 96-well microtiter plate. The plates are then cultured overnight in the fumigation incubator. The test substances are prepared as 1 mg/ml stock solutions in DMSO and diluted to the appropriate concentrations on experimental day 2 using culture medium. The substances in culture medium are then added to the cells and incubated in the fumigation incubator for 45 h. As a control, cells which are not treated with test substance are used. For the XTT assay, 1 mg/ml of XTT (sodium 3′-[1-(phenylaminocarbonyl)-3,4-tetrazolium]-bis(4-methoxy-6-nitro)benzenesulfonic acid) is dissolved in RPMI-1640 medium without Phenol Red. Additionally, a 0.383 mg/ml PMS (N-methyldibenzopyrazine methylsulfate) solution in phosphate-buffered saline solution (PBS) is prepared. On experimental day 4, 75 μl/well of XTT-PMS mixture is pipetted onto the cell plates which in the meantime have been incubated with the test substances for 45 h. For this, shortly before use, the XTT solution is mixed with the PMS solution in the ratio 50:1 (vol:vol). The cell plates are then incubated in the fumigation incubator for a further 3 h and the optical density (OD490 nm) is determined in a photometer. By means of the OD490 nm determined, the percentage inhibition is calculated relative to the control and plotted semilogarithmically in the form of a concentration-action curve. The EC50 is calculated by means of a regression analysis from the concentration-action curve using the program Graphpad Prism.

[3] = tested on: human glioblastoma cell line SF-268; assay: XTT proliferation assay, SF-268; type: cell-based; details: Homo sapiens, read-out: XTT proliferation assay, EC50, SF-268
Source text: as §1, §2

[4] = tested on: ovarian adenocarcinoma cell line SKOV-3; assay: XTT proliferation assay, SKOV-3; type: cell-based, human; details: Homo sapiens, read-out: XTT proliferation assay, EC50, SKOV3
Source text: as §1, §2

[5] = tested on: human cervical carcinoma cell line KB/HeLa; assay: XTT proliferation assay, KB/HeLa; type: cell-based; details: Homo sapiens, read-out: XTT proliferation assay, EC50, KB/Hela
Source text: as §1, §2

[6] = Saturation solubility in water; details: versus comparison substances of WO0208194
Description: (§3) The saturation solubility in water is determined as described below. For incipient dissolution of the substances and to improve wetting of the samples, at most 1% of DMSO is added. To check the content, an HPLC-UV method was used.

physchem = details: water, thermodynamic from solid
Description: as §3

[7] = NCI-H460 cells, 45 h incubation
[8] = SK-OV-3, SKOV-3 cells, 45 h incubation

SMILES	Inhibition of tubulin polymerization using 30% MAPs, EC50 [1] [µg/mL]	EC50 [2, 7] [µg/mL]	EC50 ([3]; SF-268 cells, 45 h incubation) [µg/mL]	EC50 [4, 8] [µg/mL]	EC50 ([5]; KB/HeLa cells, 45 h incubation) [µg/mL]	melting point [°C]	Inhibition of tubulin polymerization in [% INH at 10 μg/ml] using 30% MAPs [1] [% INH]	Water solubility compared to the comparison substances [6]	solubility (physchem) [µg/mL]	EC50 ([2]; NCI-H460, 45 h) [µg/mL]	EC50 ([3]; SF-268, 45 h) [µg/mL]	EC50 ([4]; SK-OV-3, 45 h) [µg/mL]	EC50 ([5]; HeLa, 45 h) [µg/mL]
CC(=O)Oc1cccc(N2CCN(C(=O)c3c4ccccc4nc4ccccc34)CC2)c1 [Compound 3, 3-[4-(Acridin-9-ylcarbonyl)piperazin-1-yl]phenyl acetate]	1.35	0.019	0.018	0.011	0.013		87						
COC(=O)Oc1cccc(N2CCN(C(=O)c3c4ccccc4nc4ccccc34)CC2)c1 [Compound 5, 3-[4-(Acridin-9-ylcarbonyl)piperazin-1-yl]phenyl methyl carbonate]	1.08	0.021 (≈ 0.0476 µM)	0.024 (≈ 0.0544 µM)	0.015 (≈ 0.034 µM)	0.017 (≈ 0.0385 µM)		94.3						
O=C(NCCO)Oc1cccc(N2CCN(C(=O)c3c4ccccc4nc4ccccc34)CC2)c1 [Compound 7, 3-[4-(Acridin-9-ylcarbonyl)piperazin-1-yl]phenyl (2-hydroxyethyl)carbamate]		0.036 (≈ 0.0765 µM)	0.031 (≈ 0.0659 µM)	0.019 (≈ 0.0404 µM)	0.029 (≈ 0.0616 µM)			greatly improved water solubilities	108 (≈ 230 µM)				
O=C(c1c2ccccc2nc2ccccc12)N1CCN(c2cccc(OP(=O)([O-])[O-])c2)CC1.[Na+].[Na+] [Compound 33, Mono-{3-[4-(acridin-9-ylcarbonyl)piperazin-1-yl]phenyl}phosphate disodium salt]									9090	0.067	0.057	0.038	0.013

More lines, main results first:

Inhibition of tubulin polymerization using 30% MAPs, EC50 [1] [µg/mL]	EC50 [2, 7] [µg/mL]	EC50 ([3]; SF-268 cells, 45 h incubation) [µg/mL]	EC50 [4, 8] [µg/mL]	EC50 ([5]; KB/HeLa cells, 45 h incubation) [µg/mL]	melting point [°C]	SMILES	Inhibition of tubulin polymerization in [% INH at 10 μg/ml] using 30% MAPs [1] [% INH]	Water solubility compared to the comparison substances [6]	solubility (physchem) [µg/mL]	EC50 ([2]; NCI-H460, 45 h) [µg/mL]	EC50 ([3]; SF-268, 45 h) [µg/mL]	EC50 ([4]; SK-OV-3, 45 h) [µg/mL]	EC50 ([5]; HeLa, 45 h) [µg/mL]
	0.029 (≈ 0.0592 µM)	0.032 (≈ 0.0653 µM)	0.019 (≈ 0.0388 µM)	0.021 (≈ 0.0429 µM)	162 to 163	O=C(OCCCl)Oc1cccc(N2CCN(C(=O)c3c4ccccc4nc4ccccc34)CC2)c1 [Compound 6, 3-[4-(Acridin-9-ylcarbonyl)piperazin-1-yl]phenyl 2-chloroethyl carbonate]	70						
4.82	0.079	0.069	0.048	0.078		CS(=O)(=O)Oc1cccc(N2CCN(C(=O)c3c4ccccc4nc4ccccc34)CC2)c1 [Compound 15, 3-[4-(Acridin-9-ylcarbonyl)piperazin-1-yl]phenyl methanesulfonate]	94.8						
	0.042 (≈ 0.0775 µM)	0.043 (≈ 0.0794 µM)	0.026 (≈ 0.048 µM)	0.033 (≈ 0.0609 µM)	107 to 108	CC1(C)OCC(COC(=O)Oc2cccc(N3CCN(C(=O)c4c5ccccc5nc5ccccc45)CC3)c2)O1 (centres unmarked) [Compound 16, 3-[4-(Acridin-9-ylcarbonyl)piperazin-1-yl]phenyl 2,2-dimethyl-[1,3]-dioxolan-4-ylmethyl carbonate]							
2.06	0.067 (≈ 0.162 µM)	0.076 (≈ 0.184 µM)	0.042 (≈ 0.102 µM)	0.064 (≈ 0.155 µM)		COc1cccc(N2CCN(C(=O)c3c4ccccc4nc4ccc(O)cc34)CC2)c1 [Compound 37, (2-Hydroxyacridin-9-yl)-[4-(3-methoxyphenyl)piperazin-1-yl]methanone]							
4.57	0.214 (≈ 0.536 µM)	0.137 (≈ 0.343 µM)	0.095 (≈ 0.238 µM)	0.125 (≈ 0.313 µM)		O=C(c1c2ccccc2nc2ccc(O)cc12)N1CCN(c2cccc(O)c2)CC1 [Compound 38, (2-Hydroxyacridin-9-yl)-[4-(3-hydroxyphenyl)piperazin-1-yl]methanone]							
